Experimental data reported in patent publication US20130157954A1, “METHODS FOR TREATMENT OR PROPHYLAXIS OF KIDNEY OR LIVER DYSFUNCTION” (NPS PHARMACEUTICALS, INC., priority 2010, published 2013).

Test: Example 1: kidney biomarkers (urea nitrogen, creatinine, GFR) in short bowel syndrome patients, every four weeks for 24 weeks; also sorted by >5% change from baseline
Type: in vivo, Human
Set-up: CREATININE (RATE BLANKED) Change from Baseline Median / GFR Median / GFR Change from Baseline Median / UREA NITROGEN Median / UREA NITROGEN Change from Baseline Median: unit not given here
Conditions: for CREATININE (RATE BLANKED) change from baseline <−5%, number of patients / CREATININE (RATE BLANKED) change from baseline <−5%, percent of patients / CREATININE (RATE BLANKED) change from baseline >5%, number of patients / CREATININE (RATE BLANKED) change from baseline >5%, percent of patients / CREATININE (RATE BLANKED) change from baseline −5% <= and <=5%, number of patients / CREATININE (RATE BLANKED) change from baseline −5% <= and <=5%, percent of patients / GFR change from baseline <−5%, number of patients / GFR change from baseline <−5%, percent of patients / GFR change from baseline >5%, number of patients / GFR change from baseline >5%, percent of patients / GFR change from baseline −5% <= and <=5%, number of patients / GFR change from baseline −5% <= and <=5%, percent of patients / UREA NITROGEN change from baseline <−5%, number of patients / UREA NITROGEN change from baseline <−5%, percent of patients / UREA NITROGEN change from baseline >5%, number of patients / UREA NITROGEN change from baseline >5%, percent of patients / UREA NITROGEN change from baseline −5% <= and <=5%, number of patients / UREA NITROGEN change from baseline −5% <= and <=5%, percent of patients: 0.1 mg/kg/day
Procedure: Human patients with short bowel syndrome were divided into three groups: a control group (16 total individuals) to receive placebo, an experimental group (35 total individuals) to receive teduglutide at 0.05 mg/kg/day throughout the study, and an experimental group (32 total individuals) to receive teduglutide at 0.1 mg/kg/day throughout the study. Patients were treated by subcutaneous injection of placebo or the appropriate dose of teduglutide. As individuals with short bowel syndrome are likely to experience associated liver and kidney disease, known biomarkers of liver and kidney function were monitored every four weeks, for 24 weeks. The liver biomarkers tested included total bilirubin, ALT and AST and ALP. The kidney biomarkers tested included urea nitrogen, creatinine and GFR. Before administration of placebo or teduglutide, diagnostic biomarker levels were tested to establish a baseline for each individual.
To visualize the effect of GLP-2 on the levels of the diagnostic biomarkers, the average change from baseline was calculated for the placebo and teduglutide treated groups for each visit after a baseline was established. The average change from baseline of each group is depicted in FIGS. 1-7. The numerical figures for each diagnostic biomarker at each time point are depicted in Table 1.
The raw data for this sorting is reproduced in Table 2 below.

In the case of `CC[C@H](C)[C@H](NC(=O)[C@H](Cc1ccccc1)NC(=O)[C@H](CC(=O)O)NC(=O)[C@H](CCCNC(=N)N)NC(=O)[C@H](C)NC(=O)[C@H](C)NC(=O)[C@H](CC(C)C)NC(=O)[C@H](CC(N)=O)NC(=O)[C@H](CC(=O)O)NC(=O)[C@H](CC(C)C)NC(=O)[C@@H](NC(=O)[C@@H](NC(=O)[C@H](CC(N)=O)NC(=O)[C@H](CCSC)NC(=O)[C@H](CCC(=O)O)NC(=O)[C@H](CC(=O)O)NC(=O)[C@H](CO)NC(=O)[C@H](Cc1ccccc1)NC(=O)[C@H](CO)NC(=O)CNC(=O)[C@H](CC(=O)O)NC(=O)CNC(=O)[C@@H](N)Cc1c[nH]cn1)[C@@H](C)O)[C@@H](C)CC)C(=O)N[C@@H](CC(N)=O)C(=O)N[C@@H](Cc1c[nH]c2ccccc12)C(=O)N[C@@H](CC(C)C)C(=O)N[C@H](C(=O)N[C@@H](CCC(N)=O)C(=O)N[C@H](C(=O)N[C@@H](CCCCN)C(=O)N[C@H](C(=O)N[C@H](C(=O)N[C@@H](CC(=O)O)C(=O)O)[C@@H](C)O)[C@@H](C)CC)[C@@H](C)O)[C@@H](C)CC` [teduglutide], the “CREATININE (RATE BLANKED) Change from Baseline Median” value (0.10 mg/kg/day, DW4) is reported as −0.5, the CREATININE (RATE BLANKED) Median (0.10 mg/kg/day, DW4) is reported as 83 µmol/L and the “GFR Change from Baseline Median” value (0.10 mg/kg/day, DW4) is reported as 3.1. The “UREA NITROGEN Change from Baseline Median” value (0.10 mg/kg/day, DW4) was 0.2, the “UREA NITROGEN Median” value (0.10 mg/kg/day, DW4) was 6.3 and the “CREATININE (RATE BLANKED) Change from Baseline Median” value (0.10 mg/kg/day, DW8) was 0.0. For the same molecule, the CREATININE (RATE BLANKED) Median (0.10 mg/kg/day, DW8) was 86 µmol/L, the “GFR Change from Baseline Median” value (0.10 mg/kg/day, DW8) was 0.2 and the “UREA NITROGEN Change from Baseline Median” value (0.10 mg/kg/day, DW8) was 0.1. The “UREA NITROGEN Median” value (0.10 mg/kg/day, DW8) was 6.4, the “CREATININE (RATE BLANKED) Change from Baseline Median” value (0.10 mg/kg/day, DW12) was 6.5 and the “GFR Change from Baseline Median” value (0.10 mg/kg/day, DW12) was −0.5. For the same molecule, the “UREA NITROGEN Change from Baseline Median” value (0.10 mg/kg/day, DW12) was 0.0, the “UREA NITROGEN Median” value (0.10 mg/kg/day, DW12) was 5.9 and the “CREATININE (RATE BLANKED) Change from Baseline Median” value (0.10 mg/kg/day, DW16) was 0.0. For the same molecule, the “GFR Change from Baseline Median” value (0.10 mg/kg/day, DW16) was 1.1, the “UREA NITROGEN Change from Baseline Median” value (0.10 mg/kg/day, DW16) was 0.0 and the “UREA NITROGEN Median” value (0.10 mg/kg/day, DW16) was 6.1. The “CREATININE (RATE BLANKED) Change from Baseline Median” value (0.10 mg/kg/day, DW20) was 0.0, the CREATININE (RATE BLANKED) Median (0.10 mg/kg/day, DW20) was 88 µmol/L and the “GFR Change from Baseline Median” value (0.10 mg/kg/day, DW20) was 1.5. For the same molecule, the “UREA NITROGEN Change from Baseline Mean (SD)” value (0.10 mg/kg/day, DW20) was −0.0 (1.60), the “UREA NITROGEN Change from Baseline Median” value (0.10 mg/kg/day, DW20) was −0.1 and the “UREA NITROGEN Median” value (0.10 mg/kg/day, DW20) was 6.0. For the same molecule, the “CREATININE (RATE BLANKED) Change from Baseline Median” value (0.10 mg/kg/day, DW 24) was 0.0, the CREATININE (RATE BLANKED) Median (0.10 mg/kg/day, DW 24) was 81 µmol/L and the “GFR Change from Baseline Median” value (0.10 mg/kg/day, DW 24) was 2.3. The “UREA NITROGEN Change from Baseline Median” value (0.10 mg/kg/day, DW 24) was 0.3, the “UREA NITROGEN Median” value (0.10 mg/kg/day, DW 24) was 5.9 and the “CREATININE (RATE BLANKED) change from baseline <−5%, number of patients” value (week 4) was 12. The “CREATININE (RATE BLANKED) change from baseline <−5%, percent of patients” value (week 4) was “(37.5%)”, the “CREATININE (RATE BLANKED) change from baseline >5%, number of patients” value (week 4) was 7 and the “CREATININE (RATE BLANKED) change from baseline >5%, percent of patients” value (week 4) was “(21.9%)”. For the same molecule, the “CREATININE (RATE BLANKED) change from baseline −5% <= and <=5%, number of patients” value (week 4) was 13, the “CREATININE (RATE BLANKED) change from baseline −5% <= and <=5%, percent of patients” value (week 4) was “(40.6%)” and the “GFR change from baseline <−5%, number of patients” value (week 4) was 7. For the same molecule, the “GFR change from baseline <−5%, percent of patients” value (week 4) was “(21.9%)”, the “GFR change from baseline >5%, number of patients” value (week 4) was 14 and the “GFR change from baseline >5%, percent of patients” value (week 4) was “(43.8%)”. The “GFR change from baseline −5% <= and <=5%, number of patients” value (week 4) was 11, the “GFR change from baseline −5% <= and <=5%, percent of patients” value (week 4) was “(34.4%)” and the “UREA NITROGEN change from baseline <−5%, number of patients” value (week 4) was 10. The “UREA NITROGEN change from baseline <−5%, percent of patients” value (week 4) was “(31.3%)”, the “UREA NITROGEN change from baseline >5%, number of patients” value (week 4) was 15 and the “UREA NITROGEN change from baseline >5%, percent of patients” value (week 4) was “(46.9%)”. For the same molecule, the “UREA NITROGEN change from baseline −5% <= and <=5%, number of patients” value (week 4) was 7, the “UREA NITROGEN change from baseline −5% <= and <=5%, percent of patients” value (week 4) was “(21.9%)” and the “CREATININE (RATE BLANKED) change from baseline <−5%, number of patients” value (week 8) was 8. The “CREATININE (RATE BLANKED) change from baseline <−5%, percent of patients” value (week 8) was “(25.0%)”, the “CREATININE (RATE BLANKED) change from baseline >5%, number of patients” value (week 8) was 13 and the “CREATININE (RATE BLANKED) change from baseline >5%, percent of patients” value (week 8) was “(40.6%)”. The “CREATININE (RATE BLANKED) change from baseline −5% <= and <=5%, number of patients” value (week 8) was 10, the “CREATININE (RATE BLANKED) change from baseline −5% <= and <=5%, percent of patients” value (week 8) was “(31.3%)” and the “GFR change from baseline <−5%, number of patients” value (week 8) was 9. The “GFR change from baseline <−5%, percent of patients” value (week 8) was “(28.1%)”, the “GFR change from baseline >5%, number of patients” value (week 8) was 9 and the “GFR change from baseline >5%, percent of patients” value (week 8) was “(28.1%)”. The “GFR change from baseline −5% <= and <=5%, number of patients” value (week 8) was 13, the “GFR change from baseline −5% <= and <=5%, percent of patients” value (week 8) was “(40.6%)” and the “UREA NITROGEN change from baseline <−5%, number of patients” value (week 8) was 9. For the same molecule, the “UREA NITROGEN change from baseline <−5%, percent of patients” value (week 8) was “(28.1%)”, the “UREA NITROGEN change from baseline >5%, number of patients” value (week 8) was 15 and the “UREA NITROGEN change from baseline >5%, percent of patients” value (week 8) was “(46.9%)”. The “UREA NITROGEN change from baseline −5% <= and <=5%, number of patients” value (week 8) was 7, the “UREA NITROGEN change from baseline −5% <= and <=5%, percent of patients” value (week 8) was “(21.9%)” and the “CREATININE (RATE BLANKED) change from baseline <−5%, number of patients” value (week 12) was 9. The “CREATININE (RATE BLANKED) change from baseline <−5%, percent of patients” value (week 12) was “(28.1%)”, the “CREATININE (RATE BLANKED) change from baseline >5%, number of patients” value (week 12) was 17 and the “CREATININE (RATE BLANKED) change from baseline >5%, percent of patients” value (week 12) was “(53.1%)”.
